Laboratory results taken from patent US5200343A, “Method for microbial dehalogenation of haloaliphatic compounds using a sulfate reducing bacteria, desulfomonile tiedjei” (Board of Trustees operating Michigan State University, priority 1991, dated 1993).
Where two headings read alike, the source gives them in different places.

Key:
[1] = system: Desulfomonile tiedjei cells; test: PCE and TCE dechlorination by resuspended cells induced with 3-fluorobenzoate versus non-induced cells (Table 1, FIG. 1); assay type: cell-based; details: for Mole % recovered, PCE / Mole % recovered, TCE / Mole % recovered, cis-DCE / Total Cl Removed: 2 μg/ml substrate, 37° C., 2 hr; for Mole % recovered, PCE / Mole % recovered, TCE / Mole % recovered, cis-DCE: average of duplicate vials; for Total Cl Removed: calculated from input concentration and Mole % recovered
Method: (§1) Cultures were grown using strict anaerobic technique in a synthetic minimal medium amended with vitamins (DeWeerd, et al, Arch. of Microbiol. 154, 23-30 (1990)), pyruvate at 20 mM, and reduced with 1 mM cysteine and 0.1 mM Na2 S2 O4. The concentration of nicotinamide and 1,4-naphthoquinone were 500 μgl^-1 and 200 μgl^-1, respectively. Thiamine, hemin and lipoic acid were used at 50 μg/liter. To induce 3-chlorobenzoate dechlorination activity, 3-fluorobenzoate was added to 0.1 mM. The complete medium was inoculated with a 1% transfer from homologous medium (without fluorobenzoate). Cultures were grown at 37° C. in the dark for about 14 days for fresh cells or 28 days for starved stationary phase cells.
(§2) Cultures were harvested by centrifugation and resuspended in 20 to 40% of the initial volume in a cold anaerobic assay buffer normally consisting of 50 mM NaCl, 10 mM sodium pyruvate, 10 mM HEPES (N-2[hydroxyethylP]piperazine-N'-[2-ethanesulfonic acid], hemisodium salt Sigma);, 0.00001% resazurin and reduced with 1 mM cysteine-HCl and 1 mM titanium (III) citrate. Resuspended cells were used to completely fill N2 sparged 10 ml serum bottles after which chlorinated ethylenes were added from a 0.5 or 1 mg/ml stock in methanol for PCE and TCE respectively. The vials were immediately sealed with Teflon lined rubber septa and aluminum crimp seals, leaving no headspace. The assays were commenced by transferring the serum bottles to a 37° C. water bath. The assays were terminated at the indicated times by transferring the serum bottles to an ice water bath, where they were stored until analyzed. Protein concentrations were determined by a modification of the Lowry method (Hanson, R. S. and J. A. Phillips, In P. Gerhardt (ed.) Manual of methods for general microbiology. American Society for Microbiology, Washington, D. C. p. 328-364 (1981)).
(§3) Chlorinated ethylenes were monitored with a Tekmar purge and trap unit (model 4000) connected to a Hewlett-Packard GC (Sunnyville, Calif.) equipped with an HP-5 cappillary column (30 m×0.53 mm×2.6 μm film thickness) and flame ionization detector. Samples (5 ml) were purged onto Tenax TA (Supelco, Bellefonte, Pa.) adsorbent with helium (30 ml/min for 16 min.), desorbed (180° C. for 4 min.), and separated using helium as a carrier at 6 ml/min. The temperature program was 30° C. for 8 min, increasing to 200° C. at 4° C./min and followed by an isothermal period of 5 min. The injection and detector temperatures were 220° C. and 300° C., respectively. PCE and its dechlorinated products were identified by comparison with authentic standards.
To further examine the transformation of both PCE and TCE and to determine if dechlorination of TCE also requires induction, a similar experiment was conducted to measure the initial transformation rates of PCE and TCE (Table 1.). […] The extent of transformation of PCE to TCE ([…] in 2H) was considerably faster than the rate of transformation of TCE to DCE ([…] in 2h), as expected from the redox potentials of these reactions (Vogel, T. M., et al., Environ. Sci. Technol. 21:722-736 (1987)) and results from mixed culture systems (Bouwer, E. J., and P. L. McCarty, Appl. Environ. Microbiol. 45:1286-1294 (1983)). The rate of transformation of PCE and TCE were much greater for the induced cultures than for the non-induced cultures.
^a suspensions were amended with PCE or TCE to a final concentration
of 2 μg/ml and incubated at 37° C. for 2 hr. Suspensions of
induced and uninduced cells contained 149 and 153 μg protein per ml
^b Data are presented as the average of duplicate vials with the
sample standard deviation in parenthesis.
^c Calculated from the input concentration of chlorinated ethylenes
and the Mole % of recovered material.

[2] = system: Desulfomonile tiedjei cells; test: Effect of different medium reductants and sterilant on PCE dechlorination by induced cells (Table 2); assay type: cell-based; details: PCE 1.66 μg/ml, 37° C., 2 hours
Method: The concentration of nicotinamide and 1,4-naphthoquinone were 500 μgl^-1 and 200 μgl^-1, respectively. Thiamine, hemin and lipoic acid were used at 50 μg/liter. To induce 3-chlorobenzoate dechlorination activity, 3-fluorobenzoate was added to 0.1 mM. The complete medium was inoculated with a 1% transfer from homologous medium (without fluorobenzoate). Cultures were grown at 37° C. in the dark for about 14 days for fresh cells or 28 days for starved stationary phase cells.
as §2, with “analyzed.” for “analyzed. Protein concentrations were determined by a modification of the Lowry method (Hanson, R. S. and J. A. Phillips, In P. Gerhardt (ed.) Manual of methods for general microbiology. American Society for Microbiology, Washington, D. C. p. 328-364 (1981)).”
as §3
Data are the average of duplicate vials and […]

Desulfomonile tiedjei = details: cited from earlier work
[3] = system: Desulfomonile tiedjei cells; test: PCE dechlorination by starved stationary phase induced cells with or without pyruvate (Table 3); assay type: cell-based; details: for Mole % recovered, PCE / Mole % recovered, TCE / Mole % recovered, cis-DCE / Mole % recovered, trans-DCE / Total Cl Removed: PCE 1.66 μg/ml, 37° C., 2 hours
Method: as §1, §2, §3
^a Starved stationary phase induced cultures were resuspended at a
concentration of 521 μg protein per ml in buffer without pyruvate,
amended with PCE to a final concentration of 1.66 μg/ml and incubated
at 37° C. for 2 hours. Data are the average of duplicate vials and
^b 0.1 mMole sodium pyruvate was added to duplicate vials before
addition of cell suspensions to give a final concentration of ca. 10 mM

[4] = system: 3-Chlorobenzoate Dechlorination Activity; test: Induction of 3-chlorobenzoate dechlorination activity by growth with 3-chlorobenzoate, analogues, or chloro- and iodobenzoates (Tables 4, 5); assay type: cell-based, Desulfomonile tiedjei
Method: Table 4. Cultures were grown in the presence of 3-chlorobenzoate or a 3-chlorobenzoate analogue substituted at the 1- or 3- position with the indicated functional groups. After several generations the culture were concentrated, washed and resuspended in anaerobic buffered salts containing 1 mM 3-chlorobenzoate and 10 mM pyruvate (as electron donor). […] After two hours samples were taken for benzoate analysis by HPLC. Values presented are the average of duplicate or triplicate cultures ± sample standard deviation.
Table 5. Chloro- and iodobenzoates were tested as inducers of 3-chlorobenzoate dehalogenation activity as described in the legend to Table 4. All compounds were initially at 500 μM; the 3-halo compounds were amended during growth as they were dehalogenated. Values presented are the average of duplicate or triplicate cultures± sample standard deviation.

[5] = system: Desulfomonile tiedjei cells; test: 3-chlorobenzoate dechlorination by starved stationary phase induced cells with or without pyruvate (Table 3); assay type: cell-based
Method: Cultures were grown using strict anaerobic technique in a synthetic minimal medium amended with vitamins (DeWeerd, et al, Arch. of Microbiol. 154, 23-30 (1990)), pyruvate at 20 mM, and reduced with 1 mM cysteine and 0.1 mM Na2 S2 O4. The concentration of nicotinamide and 1,4-naphthoquinone were 500 μgl^-1 and 200 μgl^-1, respectively. Thiamine, hemin and lipoic acid were used at 50 μg/liter. To induce 3-chlorobenzoate dechlorination activity, 3-fluorobenzoate was added to 0.1 mM. The complete medium was inoculated with a 1% transfer from homologous medium (without fluorobenzoate). […]
as §2, with “Resuspended cells were used to completely fill N2 sparged 10 ml serum bottles after which chlorinated ethylenes were added from a 0.5 or 1 mg/ml stock in methanol for PCE and TCE respectively. The vials were immediately sealed with Teflon lined rubber septa and aluminum crimp seals, leaving no headspace. The assays were commenced by transferring the serum bottles to a 37° C. water bath.” left out, “(1981)). […]” for “(1981)).”

## ClC(Cl)=C(Cl)Cl [PCE, tetrachloroethylene]
[1]; Only cultures pre-induced with 3-fluorobenzoate
  product formation from PCE or TCE: measurable product formation
[1]; cells grown with 0.1 mM 3-fluorobenzoate
  transformation of PCE to TCE and cis-DCE (FIG. 1): Rapid transformation
[1]; induced (+)
  Mole % recovered, PCE: 45.7 Mole %
  Mole % recovered, TCE: 54.3 Mole %
  Mole % recovered, cis-DCE: 0.0 Mole %
  Total Cl Removed: 43.9 μmol/g prot. in 2 h
[1]; induced cells, longer time course
  formation of trans-DCE from PCE: formation of small amounts of trans-DCE
[1]; non-induced (-)
  Mole % recovered, PCE: 100.0 Mole %
  Mole % recovered, TCE: 0.0 Mole %
  Mole % recovered, cis-DCE: 0.0 Mole %
  Total Cl Removed: 0.0 μmol/g prot. in 2 h
[1]; pre-induced with 3-fluorobenzoate
  extent of transformation of PCE to TCE: 43.8 mol g protein ^-1 in 2H
[1]; uninduced cells
  dechlorination of PCE (FIG. 1): no dechlorination was detected
[2]; Formaldehyde + (0.2%)
  Mole % recovered, PCE: 95.0 Mole %
  Mole % recovered, TCE: 5.0 Mole %
  Mole % recovered, cis-DCE: 0.0 Mole %
  Mole % recovered, trans-DCE: 0.0 Mole %
  Total Cl Removed: 1.0 μmol/g prot. in 2 h
[2]; Formaldehyde -
  Mole % recovered, PCE: 0.0 Mole %
  Mole % recovered, TCE: 26.4 Mole %
  Mole % recovered, cis-DCE: 69.4 Mole %
  Mole % recovered, trans-DCE: 4.2 Mole %
  Total Cl Removed: 34.1 μmol/g prot. in 2 h
[2]; reductant Na2 S (1 mM)
  Mole % recovered, PCE: 6.3 Mole %
  Mole % recovered, TCE: 18.6 Mole %
  Mole % recovered, cis-DCE: 70.7 Mole %
  Mole % recovered, trans-DCE: 4.4 Mole %
  Total Cl Removed: 45.4 μmol/g prot. in 2 h
[2]; reductant TiCit
  Mole % recovered, PCE: 0.0 Mole %
  Mole % recovered, TCE: 9.4 Mole %
  Mole % recovered, cis-DCE: 85.8 Mole %
  Mole % recovered, trans-DCE: 4.7 Mole %
  Total Cl Removed: 50.0 μmol/g prot. in 2 h
Desulfomonile tiedjei; Fathepure et al.
  Dechlorination of PCE by D. tiedjei: 2.34 μmolg protein^-1 day^-1
Desulfomonile tiedjei; Suflita et al.
  Dechlorination of PCE by D. tiedjei: 4 μmol/l in five (5) months
[3]; pyruvate + (ca. 10 mM)
  Mole % recovered, PCE: 2.1 Mole %
  Mole % recovered, TCE: 44.1 Mole %
  Mole % recovered, cis-DCE: 50.3 Mole %
  Mole % recovered, trans-DCE: 3.5 Mole %
  Total Cl Removed: 29.1 (0.8) μmol/g prot. in 2 h
[3]; pyruvate -
  Mole % recovered, PCE: 78.6 Mole %
  Mole % recovered, TCE: 21.4 Mole %
  Mole % recovered, cis-DCE: 0.0 Mole %
  Mole % recovered, trans-DCE: 0.0 Mole %
  Total Cl Removed: 4.1 (0.3) μmol/g prot. in 2 h
[3]; starved stationary phase cells
  PCE dechlorination in absence of pyruvate relative to presence of pyruvate: about 14%

## O=C(O)c1cccc(Cl)c1 [3-chlorobenzoate]
[4]; Table 4, inducers at 500 μM except 3-formylbenzoate 100 μM and 3-chlorobenzoate (amended at intervals), assay 1 mM 3-chlorobenzoate, two hours
  Induction Activity (3-chlorobenzoate dechlorination activity): 672 ± 8 nMol/hr/mg protein
[4]; Table 5, inducers initially 500 μM, 3-halo compounds amended during growth
  Induction Activity (3-chlorobenzoate dechlorination activity): 672 ± 8 nMol/hr/mg protein
[5]
  3-chlorobenzoate dechlorination in absence of pyruvate relative to presence of pyruvate: about 12%
